This passage reports T/C results from PubChem BioAssay AID330 (DTP/NCI, 2004).

This experiment concerns P388 leukemia ip, CD2F1 mice, survival T/C. In words: NCI In Vivo Anticancer Drug Screen. Data for tumor model P388 Leukemia (intraperitoneal) in CD2F1 (CDF1) mice. To be noted: endpoint: median survival time, higher = longer survival. The method in brief: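 Mice carrying the transplanted tumor received test compound or vehicle. Survival was recorded in each group, and the value is the treated-group measurement divided by that of the vehicle-treated control group.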

The mark [1] stands for this setting: dose: 100.0 mg/kg/injection, schedule: Q01DX009 (ip), vehicle: saline with Tween-80.
Where [2] appears, read: dose: 100.0 mg/kg/injection, schedule: Q04DX003 (ip), vehicle: saline with Tween-80.
The mark [3] stands for this setting: dose: 200.0 mg/kg/injection, schedule: Q01DX009 (ip), vehicle: saline with Tween-80.
Where [4] appears, read: dose: 200.0 mg/kg/injection, schedule: Q04DX003 (ip), vehicle: saline with Tween-80.
The mark [5] stands for this setting: dose: 25.0 mg/kg/injection, schedule: Q04DX002 (ip), vehicle: Klucel (hydroxypropylcellulose) (HPC).
Where [6] appears, read: dose: 50.0 mg/kg/injection, schedule: Q04DX002 (ip), vehicle: Klucel (hydroxypropylcellulose) (HPC).
The mark [7] stands for this setting: dose: 60.0 mg/kg/injection, schedule: Q01DX005 (ip), vehicle: saline with Tween-80.
[8] abbreviates: dose: 120.0 mg/kg/injection, schedule: Q01DX005 (ip), vehicle: saline with Tween-80.
[9] abbreviates: dose: 30.0 mg/kg/injection, schedule: Q01DX005 (ip), vehicle: saline with Tween-80.
The mark [10] stands for this setting: dose: 240.0 mg/kg/injection, schedule: Q01DX005 (ip), vehicle: saline with Tween-80.
[11] abbreviates: dose: 50.0 mg/kg/injection, schedule: Q01DX009 (ip), vehicle: saline with Tween-80.

Where “and” joins values, the source holds several entries; their conditions need not be identical. Equal entries are not always repeated. Inconclusive results and toxic doses are left out.

Turning to `COc1ccc2c(c1OC)C(=O)O[C@@H]2[C@H]1c2cc3c(cc2CCN1C)OCO3`, the T/C (dose: 10.0 mg/kg/injection, schedule: Q01DX009 (ip), vehicle: saline) is 108 % of control; the T/C (dose: 20.0 mg/kg/injection, schedule: Q01DX009 (ip), vehicle: saline) was 114 % of control; the T/C (dose: 40.0 mg/kg/injection, schedule: Q01DX009 (ip), vehicle: saline) is 108 % of control; the T/C (dose: 80.0 mg/kg/injection, schedule: Q01DX009 (ip), vehicle: saline) is 99 % of control.
Consider `CCOC(=O)C1=C(Nc2ccc(OC)cc2)C(N)=NC1=N`, for which the T/C by setting is: (dose: 6.25 mg/kg/injection, schedule: Q01DX009 (ip), vehicle: suspension in saline) 100 % of control; (dose: 12.5 mg/kg/injection, schedule: Q01DX009 (ip), vehicle: suspension in saline) 102 % of control and 110 % of control; (dose: 25.0 mg/kg/injection, schedule: Q01DX009 (ip), vehicle: suspension in saline) 106 % of control and 117 % of control; (dose: 50.0 mg/kg/injection, schedule: Q01DX009 (ip), vehicle: suspension in saline) 102 % of control and 121 % of control; (dose: 100.0 mg/kg/injection, schedule: Q01DX009 (ip), vehicle: suspension in saline) 92 % of control.
As for `Cc1cc(=O)c2c3c(ccc2[nH]1)Oc1ccccc1O3`, the T/C was 101 % of control (dose: 50.0 mg/kg/injection, schedule: Q01DX005 (ip), vehicle: saline with Tween-80); 101 % of control (dose: 100.0 mg/kg/injection, schedule: Q01DX005 (ip), vehicle: saline with Tween-80); 100 % of control (dose: 200.0 mg/kg/injection, schedule: Q01DX005 (ip), vehicle: saline with Tween-80).
Regarding `COC(=O)CC(=O)c1ccc(OC(C)C)cc1`, the T/C runs as follows: under setting [1], 100 % of control; under setting [2], 100 % of control; under setting [3], 100 % of control; under setting [4], 95 % of control; (dose: 400.0 mg/kg/injection, schedule: Q01DX009 (ip), vehicle: saline with Tween-80) 100 % of control; (dose: 400.0 mg/kg/injection, schedule: Q04DX003 (ip), vehicle: saline with Tween-80) 100 % of control.
As to `C=C(C(=O)OC1C/C(C)=C/C(O)C/C(C)=C/C2OC(=O)C(=C)C21)C(C)O` (configuration not stated), the T/C runs as follows: under setting [5], 109 % of control; (dose: 25.0 mg/kg/injection, schedule: Q04DX002 (ip), vehicle: saline with Tween-80) 110 % of control; under setting [6], 117 % of control; (dose: 50.0 mg/kg/injection, schedule: Q04DX002 (ip), vehicle: saline with Tween-80) 102 % of control; (dose: 100.0 mg/kg/injection, schedule: Q04DX002 (ip), vehicle: Klucel (hydroxypropylcellulose) (HPC)) 117 % of control; (dose: 200.0 mg/kg/injection, schedule: Q04DX002 (ip), vehicle: saline with Tween-80) 124 % of control.
For `CC(=O)[O-].CC(=O)[O-].CC(=O)[O-].CC(=O)[O-].Cn1c(=O)c2[nH]cnc2n(C)c1=O.Cn1c(=O)c2[nH]cnc2n(C)c1=O.[Rh+2].[Rh+2]`, the T/C is 100 % of control (dose: 3.12 mg/kg/injection, schedule: Q04DX002 (ip), vehicle: Klucel (hydroxypropylcellulose) (HPC)); 101 % of control and 120 % of control (dose: 6.25 mg/kg/injection, schedule: Q04DX002 (ip), vehicle: Klucel (hydroxypropylcellulose) (HPC)); 101 % of control and 118 % of control (dose: 12.5 mg/kg/injection, schedule: Q04DX002 (ip), vehicle: Klucel (hydroxypropylcellulose) (HPC)); 103 % of control and 110 % of control under setting [5]; 103 % of control under setting [6].
In the case of `N#CC(=O)Nc1ccc(Cl)c(Cl)c1`, the T/C is 104 % of control (dose: 7.5 mg/kg/injection, schedule: Q01DX005 (ip), vehicle: Klucel (hydroxypropylcellulose) (HPC)); 99 % of control (dose: 15.0 mg/kg/injection, schedule: Q01DX005 (ip), vehicle: Klucel (hydroxypropylcellulose) (HPC)); 100 % of control (dose: 30.0 mg/kg/injection, schedule: Q01DX005 (ip), vehicle: Klucel (hydroxypropylcellulose) (HPC)).
`C=C1NC(=O)C(N)=C1C(C)=O`: the T/C runs as follows: under setting [7], 100 % of control; under setting [8], 104 % of control.
Take `Cc1cc2nc(CC(=O)c3ccc4ccccc4c3)c(=O)[nH]c2cc1C`: the T/C runs as follows: (dose: 15.0 mg/kg/injection, schedule: Q01DX005 (ip), vehicle: saline with Tween-80) 91 % of control; under setting [9], 91 % of control; under setting [7], 90 % of control.
Regarding `O=C1C/C(=N\Nc2nc(-c3ccc(Cl)cc3)cs2)C(c2ccccc2)N1c1ccccc1` (configuration not stated), the T/C runs as follows: (dose: 100.0 mg/kg/injection, schedule: Q01DX001 (ip), vehicle: saline with Tween-80) 98 % of control; (dose: 200.0 mg/kg/injection, schedule: Q01DX001 (ip), vehicle: saline with Tween-80) 90 % of control; (dose: 400.0 mg/kg/injection, schedule: Q01DX001 (ip), vehicle: saline with Tween-80) 90 % of control.
`C/C(CC(C)C(=O)O)=N/NC(N)=O` (configuration not stated): the T/C is, setting by setting: (dose: 50.0 mg/kg/injection, schedule: Q01DX005 (ip), vehicle: Klucel (hydroxypropylcellulose) (HPC)) 97 % of control; (dose: 100.0 mg/kg/injection, schedule: Q01DX005 (ip), vehicle: Klucel (hydroxypropylcellulose) (HPC)) 97 % of control; (dose: 200.0 mg/kg/injection, schedule: Q01DX005 (ip), vehicle: Klucel (hydroxypropylcellulose) (HPC)) 97 % of control.
Consider `CC(Nc1nncs1)Nc1nncs1`, for which the T/C is 105 % of control under setting [9]; 159 % of control and 162 % of control under setting [8]; 160 % of control and 170 % of control under setting [10].
Consider `CC(C)c1cccc(O)c1O`, for which the T/C (dose: 100.0 mg/kg/injection, schedule: Q01DX009 (ip), vehicle: saline) is 97 % of control.
For `c1ccc(N/N=C2/CCN3CCCc4cccc2c43)cc1`, the T/C runs as follows: (dose: 12.5 mg/kg/injection, schedule: Q04DX003 (ip), vehicle: DMSO) 100 % of control; (dose: 25.0 mg/kg/injection, schedule: Q04DX003 (ip), vehicle: DMSO) 101 % of control; (dose: 50.0 mg/kg/injection, schedule: Q04DX003 (ip), vehicle: DMSO) 110 % of control.
In the case of `C=C(C)CCC(N)C(=O)O` (configuration not stated), the T/C reads like this: (dose: 12.5 mg/kg/injection, schedule: Q01DX009 (ip), vehicle: saline) 107 % of control; (dose: 25.0 mg/kg/injection, schedule: Q01DX009 (ip), vehicle: saline) 104 % of control; (dose: 50.0 mg/kg/injection, schedule: Q01DX009 (ip), vehicle: saline) 100 % of control.
As to `[CH3][Sn]([CH3])([O]S(=O)c1ccc(Cl)cc1)[O]S(=O)c1ccc(Cl)cc1` (configuration not stated), the T/C is 114 % of control (dose: 100.0 mg/kg/injection, schedule: Q01DX001 (ip), vehicle: Klucel (hydroxypropylcellulose) (HPC)) and 105 % of control (dose: 200.0 mg/kg/injection, schedule: Q01DX001 (ip), vehicle: Klucel (hydroxypropylcellulose) (HPC)).
As for `O=C(O)c1cc(C(=O)CC(=O)c2cc(C(=O)O)c(O)c3ccccc23)c2ccccc2c1O`, the T/C was 94 % of control under setting [11] and 88 % of control under setting [1].
Consider `CC(=O)Nc1cccc(N(CCOS(C)(=O)=O)CCOS(C)(=O)=O)c1`, for which the T/C (dose: 20.0 mg/kg/injection, schedule: Q04DX003 (ip), vehicle: saline with Tween-80) is 172 % of control.
`O=C(Nc1ccccc1C(=O)NCC1CC1)c1cccs1`: the T/C runs as follows: under setting [7], 106 % of control; under setting [8], 100 % of control; under setting [10], 99 % of control.
Regarding `CCOC(=O)OCC(=O)[C@@]1(O)CC[C@H]2[C@@H]3CCC4=CC(=O)CC[C@]4(C)[C@H]3[C@@H](O)C[C@@]21C`, the T/C is, setting by setting: under setting [11], 104 % of control; (dose: 50.0 mg/kg/injection, schedule: Q04DX003 (ip), vehicle: saline with Tween-80) 100 % of control; under setting [1], 100 % of control; under setting [2], 100 % of control; under setting [3], 90 % of control; under setting [4], 100 % of control.
For the compound `COC1OCC(NC(=O)c2ccccc2)C(OS(C)(=O)=O)C1OS(C)(=O)=O` (configuration not stated), the T/C was 97 % of control (dose: 12.5 mg/kg/injection, schedule: Q01DX009 (ip), vehicle: other); 87 % of control (dose: 25.0 mg/kg/injection, schedule: Q01DX009 (ip), vehicle: other); 106 % of control (dose: 50.0 mg/kg/injection, schedule: Q01DX009 (ip), vehicle: other); 95 % of control (dose: 100.0 mg/kg/injection, schedule: Q01DX009 (ip), vehicle: other); 88 % of control (dose: 200.0 mg/kg/injection, schedule: Q01DX009 (ip), vehicle: other).
